{"source": "patent US10583113B2", "about": "“Cromolyn compositions for treatment of pulmonary fibrosis” (Respivant Sciences, GmbH, priority 2016, dated 2020)", "key": {"[1]": {"conditions": "available formulations of DSCG, not the compositions of the disclosure; cited from earlier work"}, "[2]": {"assay": "Pharmacokinetics of cromolyn sodium in plasma and lung after single intraperitoneal injection", "type": "in vivo, male BALB/c mice", "conditions": "single IP injection, 10 mg/kg and 100 mg/kg", "method": "BALB/c male mice, weighing 22±2 g, were provided by BioLasco Taiwan. All animals were maintained in a well-controlled temperature (20-24° C.) and humidity (30%-70%) environment with 12 hours light/dark cycles. The mice were given free access to a standard lab diet [MFG (Oriental Yeast Co., Ltd., Japan)] and autoclaved tap water.\nThe solution was administered to the mice by IP injection at concentrations of 10 mg/kg and 100 mg/kg. The dosing volume for both dose strengths was 5 mL/kg.\nThe mice were sedated under general inhalant anesthesia (3% isoflurane) for blood collection by cardiac puncture. […]\nThe plasma samples were processed using acetonitrile (ACN) precipitation and analyzed by LC-MS/MS. […] The processed plasma samples were stored at −70° C. until receiving LC-MS/MS analysis, at which time peak areas were recorded, and the concentrations of the test substance in the unknown plasma samples were determined using the respective calibration curve. The reportable linear range of the assay was determined, along with the lower limit of quantitation (LLQ).\nEach lung was homogenized in 1.5 mL cold phosphate-buffered saline (PBS) at pH 7.4 for 10 seconds on ice. The lung homogenate was centrifuged at 5,400×g for 15 minutes at 4° C., and the supernatant was subsequently processed using ACN precipitation and analyzed by LC-MS/MS. […]"}}, "data": [{"smiles": "O=C([O-])c1cc(=O)c2c(OCC(O)COc3cccc4oc(C(=O)O)cc(=O)c34)cccc2o1.[Na+]", "note": "[cromolyn sodium, disodium 5,5′-(2-hydroxypropane-1,3-diyl)bis(oxy)bis(4-oxo-4H-chromene-2-carboxylate)]", "values": [{"measurement": "Bioavailability of the available formulations", "setting": "[1]", "value": "approximately 1%"}, {"measurement": "Exposure of cromolyn sodium in plasma and lungs", "setting": "[2]", "value": "Significant exposure"}]}]}
